# Reference: patent US9695155B2, “Herbicidal substituted pyrimidinyloxy benzene compounds” (E. I. DU PONT DE NEMOURS AND COMPANY, priority 2013, dated 2017)
# Assays:
# barnyardgrass [1] = assay: Test A preemergence; assay type: in vivo, Echinochloa crus-galli
# Summary of the method: (§1)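 Compounds in non-phytotoxic solvent with surfactant applied as soil spray preemergence, or postemergence to plants 2-10 cm at one- to two-leaf stage, in loam/sand. After approximately 10 days in greenhouse, injury rated visually versus untreated controls, 0 (no effect) to 100 (complete control).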
# large (Lg) crabgrass [2] = assay: Test A preemergence; assay type: in vivo, Digitaria sanguinalis
# Summary of the method: as §1
# giant foxtail [3] = assay: Test A preemergence; assay type: in vivo, Setaria faberii
# Summary of the method: as §1
# morningglory [4] = assay: Test A preemergence; assay type: in vivo, Ipomoea spp.
# Summary of the method: as §1
# pigweed [5] = assay: Test A preemergence; assay type: in vivo, Amaranthus retroflexus
# Summary of the method: as §1
# velvetleaf [6] = assay: Test A preemergence; assay type: in vivo, Abutilon theophrasti
# Summary of the method: as §1
# wheat [7] = assay: Test A preemergence; assay type: in vivo, Triticum aestivum
# Summary of the method: as §1
# corn [8] = assay: Test A preemergence; assay type: in vivo, Zea mays
# Summary of the method: as §1
# barnyardgrass [9] = assay: Test A postemergence; assay type: in vivo, Echinochloa crus-galli
# Summary of the method: as §1
# large (Lg) crabgrass [10] = assay: Test A postemergence; assay type: in vivo, Digitaria sanguinalis
# Summary of the method: as §1
# giant foxtail [11] = assay: Test A postemergence; assay type: in vivo, Setaria faberii
# Summary of the method: as §1
# morningglory [12] = assay: Test A postemergence; assay type: in vivo, Ipomoea spp.
# Summary of the method: as §1
# pigweed [13] = assay: Test A postemergence; assay type: in vivo, Amaranthus retroflexus
# Summary of the method: as §1
# velvetleaf [14] = assay: Test A postemergence; assay type: in vivo, Abutilon theophrasti
# Summary of the method: as §1
# wheat [15] = assay: Test A postemergence; assay type: in vivo, Triticum aestivum
# Summary of the method: as §1
# corn [16] = assay: Test A postemergence; assay type: in vivo, Zea mays
# Summary of the method: as §1
# rice = assay: Test B flooded paddy test; assay type: in vivo, Oryza sativa; settings: Flood, 250 g ai/ha; 0 to 100 scale where 0 is no effect and 100 is complete control
# Summary of the method: (§2)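 Post-emergence paddy-water application at the 2-leaf stage, with 3 cm flood kept for the whole test. Response was judged visually relative to controls after 13 to 15 greenhouse days, 0 indicating no effect and 100 complete control.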
# sedge, umbrella = assay: Test B flooded paddy test; assay type: in vivo, Cyperus difformis; settings: Flood, 250 g ai/ha; 0 to 100 scale where 0 is no effect and 100 is complete control
# Summary of the method: as §2
# Heteranthera limosa = assay: Test B flooded paddy test; assay type: in vivo; settings: Flood, 250 g ai/ha; 0 to 100 scale where 0 is no effect and 100 is complete control
# Summary of the method: as §2
# barnyardgrass [17] = assay: Test B flooded paddy test; assay type: in vivo, Echinochloa crus-galli; settings: Flood, 250 g ai/ha; 0 to 100 scale where 0 is no effect and 100 is complete control
# Summary of the method: as §2
# [18] = 125 g ai/ha, 0 to 100 scale where 0 is no effect and 100 is complete control
# [19] = 500 g ai/ha, 0 to 100 scale, 0 no effect, 100 complete control, approx. 10 days
# [20] = 500 g ai/ha, 0 to 100 scale, 0 no effect, 100 complete control
# [21] = 500 g ai/ha, 0 to 100 scale where 0 is no effect and 100 is complete control
smiles,measurement,setting,value
CC(C)(C)c1ccn(-c2ccccc2Oc2ncc(Cl)cn2)n1 [Compound 29],"Plant response rating, Barnyardgrass",barnyardgrass [1]; [18],0
same,Barnyardgrass plant response rating,barnyardgrass [1]; [19],20
same,"Plant response rating, Crabgrass, Large",large (Lg) crabgrass [2]; [18],10
same,"Crabgrass, Large plant response rating",large (Lg) crabgrass [2]; [19],40
same,"Plant response rating, Foxtail, Giant",giant foxtail [3]; [18],10
same,"Foxtail, Giant plant response rating",giant foxtail [3]; [19],20
same,"Plant response rating, Morningglory",morningglory [4]; [18],0
same,Morningglory plant response rating,morningglory [4]; [19],0
same,"Plant response rating, Pigweed",pigweed [5]; [18],0
same,Pigweed plant response rating,pigweed [5]; [19],0
same,"Plant response rating, Velvetleaf",velvetleaf [6]; [18],0
same,Velvetleaf plant response rating,velvetleaf [6]; [19],40
same,"Plant response rating, Wheat",wheat [7]; [18],0
same,Wheat plant response rating,wheat [7]; [19],0
same,"Plant response rating, Corn",corn [8]; [18],0
same,Corn plant response rating,corn [8]; [19],0
same,"Plant response rating, Barnyardgrass",barnyardgrass [9]; [18],0
same,"Plant response rating, Barnyardgrass",barnyardgrass [9]; [20],0
same,"Plant response rating, Crabgrass, Large",large (Lg) crabgrass [10]; [18],10
same,"Plant response rating, Crabgrass, Large",large (Lg) crabgrass [10]; [20],40
same,"Plant response rating, Foxtail, Giant",giant foxtail [11]; [18],20
same,"Plant response rating, Foxtail, Giant",giant foxtail [11]; [20],30
same,"Plant response rating, Morningglory",morningglory [12]; [18],0
same,"Plant response rating, Morningglory",morningglory [12]; [20],0
same,"Plant response rating, Pigweed",pigweed [13]; [18],20
same,"Plant response rating, Pigweed",pigweed [13]; [20],50
same,"Plant response rating, Velvetleaf",velvetleaf [14]; [18],20
same,"Plant response rating, Velvetleaf",velvetleaf [14]; [20],40
same,"Plant response rating, Wheat",wheat [15]; [18],0
same,"Plant response rating, Wheat",wheat [15]; [20],0
same,"Plant response rating, Corn",corn [16]; [18],0
same,"Plant response rating, Corn",corn [16]; [20],0
same,"Plant response rating, Rice",rice,0
same,"Plant response rating, Sedge, Umbrella","sedge, umbrella",0
same,"Plant response rating, Ducksalad",Heteranthera limosa,0
same,"Plant response rating, Barnyardgrass",barnyardgrass [17],0
FC(F)(F)c1ccn(-c2ccccc2Sc2ncc(Cl)cn2)n1 [Compound 28],"Plant response rating, Barnyardgrass",barnyardgrass [1]; [18],0
same,Barnyardgrass plant response rating,barnyardgrass [1]; [19],10
same,"Plant response rating, Crabgrass, Large",large (Lg) crabgrass [2]; [18],0
same,"Crabgrass, Large plant response rating",large (Lg) crabgrass [2]; [19],10
same,"Plant response rating, Foxtail, Giant",giant foxtail [3]; [18],0
same,"Foxtail, Giant plant response rating",giant foxtail [3]; [19],10
same,"Plant response rating, Morningglory",morningglory [4]; [18],0
same,Morningglory plant response rating,morningglory [4]; [19],0
same,"Plant response rating, Pigweed",pigweed [5]; [18],0
same,Pigweed plant response rating,pigweed [5]; [19],40
same,"Plant response rating, Velvetleaf",velvetleaf [6]; [18],0
same,Velvetleaf plant response rating,velvetleaf [6]; [19],0
same,"Plant response rating, Wheat",wheat [7]; [18],0
same,Wheat plant response rating,wheat [7]; [19],0
same,"Plant response rating, Corn",corn [8]; [18],0
same,Corn plant response rating,corn [8]; [19],0
same,"Plant response rating, Barnyardgrass",barnyardgrass [9]; [18],0
same,"Plant response rating, Barnyardgrass",barnyardgrass [9]; [20],10
same,"Plant response rating, Crabgrass, Large",large (Lg) crabgrass [10]; [18],0
same,"Plant response rating, Crabgrass, Large",large (Lg) crabgrass [10]; [20],20
same,"Plant response rating, Foxtail, Giant",giant foxtail [11]; [18],0
same,"Plant response rating, Foxtail, Giant",giant foxtail [11]; [20],10
same,"Plant response rating, Morningglory",morningglory [12]; [18],10
same,"Plant response rating, Morningglory",morningglory [12]; [20],10
same,"Plant response rating, Pigweed",pigweed [13]; [18],10
same,"Plant response rating, Pigweed",pigweed [13]; [20],30
same,"Plant response rating, Velvetleaf",velvetleaf [14]; [18],0
same,"Plant response rating, Velvetleaf",velvetleaf [14]; [20],30
same,"Plant response rating, Wheat",wheat [15]; [18],0
same,"Plant response rating, Wheat",wheat [15]; [20],0
same,"Plant response rating, Corn",corn [16]; [18],0
same,"Plant response rating, Corn",corn [16]; [20],20
same,"Plant response rating, Rice",rice,0
same,"Plant response rating, Sedge, Umbrella","sedge, umbrella",0
same,"Plant response rating, Ducksalad",Heteranthera limosa,35
same,"Plant response rating, Barnyardgrass",barnyardgrass [17],0
FC(F)(F)c1cnc(Oc2ccccc2-n2cc(Cl)cn2)nc1 [Compound 6],Barnyardgrass plant response rating,barnyardgrass [1]; [18],20
same,Barnyardgrass plant response rating,barnyardgrass [1]; [19],90
same,"Crabgrass, Large plant response rating",large (Lg) crabgrass [2]; [18],90
same,"Crabgrass, Large plant response rating",large (Lg) crabgrass [2]; [19],100
same,"Foxtail, Giant plant response rating",giant foxtail [3]; [18],90
same,"Foxtail, Giant plant response rating",giant foxtail [3]; [19],100
same,Morningglory plant response rating,morningglory [4]; [18],0
same,Morningglory plant response rating,morningglory [4]; [19],10
same,Pigweed plant response rating,pigweed [5]; [18],100
same,Pigweed plant response rating,pigweed [5]; [19],100
same,Velvetleaf plant response rating,velvetleaf [6]; [18],100
same,Velvetleaf plant response rating,velvetleaf [6]; [19],100
same,Wheat plant response rating,wheat [7]; [18],0
same,Wheat plant response rating,wheat [7]; [19],30
same,Corn plant response rating,corn [8]; [18],0
same,Corn plant response rating,corn [8]; [19],20
same,"Plant response rating, Barnyardgrass",barnyardgrass [9]; [18],40
same,"Plant response rating, Barnyardgrass",barnyardgrass [9]; [20],100
same,"Plant response rating, Crabgrass, Large",large (Lg) crabgrass [10]; [18],50
same,"Plant response rating, Crabgrass, Large",large (Lg) crabgrass [10]; [20],100
same,"Plant response rating, Foxtail, Giant",giant foxtail [11]; [18],80
same,"Plant response rating, Foxtail, Giant",giant foxtail [11]; [20],100
same,"Plant response rating, Morningglory",morningglory [12]; [18],40
same,"Plant response rating, Morningglory",morningglory [12]; [20],70
same,"Plant response rating, Pigweed",pigweed [13]; [18],100
same,"Plant response rating, Pigweed",pigweed [13]; [20],100
same,"Plant response rating, Velvetleaf",velvetleaf [14]; [18],100
same,"Plant response rating, Velvetleaf",velvetleaf [14]; [20],100
same,"Plant response rating, Wheat",wheat [15]; [18],40
same,"Plant response rating, Wheat",wheat [15]; [20],90
same,"Plant response rating, Corn",corn [16]; [18],20
same,"Plant response rating, Corn",corn [16]; [20],60
same,"Plant response rating, Rice",rice,15
same,"Plant response rating, Sedge, Umbrella","sedge, umbrella",55
same,"Plant response rating, Ducksalad",Heteranthera limosa,65
same,"Plant response rating, Barnyardgrass",barnyardgrass [17],0
Cc1ccc(Oc2ncc(Cl)cn2)c(-n2cc(Br)cn2)c1Br [Compound 202],"Barnyardgrass plant response rating (0 to 100 scale, 0 is no effect, 100 is complete control)",barnyardgrass [1]; 125 g ai/ha,0
same,Barnyardgrass plant response rating,barnyardgrass [1]; [21],10
same,"Crabgrass, Large plant response rating (0 to 100 scale)",large (Lg) crabgrass [2]; 125 g ai/ha,40
same,"Crabgrass, Large plant response rating",large (Lg) crabgrass [2]; [21],70
same,"Foxtail, Giant plant response rating (0 to 100 scale)",giant foxtail [3]; 125 g ai/ha,10
same,"Foxtail, Giant plant response rating",giant foxtail [3]; [21],70
same,Morningglory plant response rating (0 to 100 scale),morningglory [4]; 125 g ai/ha,0
same,Morningglory plant response rating,morningglory [4]; [21],0
same,Pigweed plant response rating (0 to 100 scale),pigweed [5]; 125 g ai/ha,0
same,Pigweed plant response rating,pigweed [5]; [21],0
same,Velvetleaf plant response rating (0 to 100 scale),velvetleaf [6]; 125 g ai/ha,0
same,Velvetleaf plant response rating,velvetleaf [6]; [21],0
same,Wheat plant response rating (0 to 100 scale),wheat [7]; 125 g ai/ha,0
same,Wheat plant response rating,wheat [7]; [21],0
same,Corn plant response rating (0 to 100 scale),corn [8]; 125 g ai/ha,0
same,Corn plant response rating,corn [8]; [21],0
same,Barnyardgrass plant response rating,barnyardgrass [9]; [18],0
same,"Plant response rating, Barnyardgrass",barnyardgrass [9]; [21],0
same,"Crabgrass, Large plant response rating",large (Lg) crabgrass [10]; [18],10
same,"Plant response rating, Crabgrass, Large",large (Lg) crabgrass [10]; [21],50
same,"Foxtail, Giant plant response rating",giant foxtail [11]; [18],10
same,"Plant response rating, Foxtail, Giant",giant foxtail [11]; [21],30
same,Morningglory plant response rating,morningglory [12]; [18],0
same,"Plant response rating, Morningglory",morningglory [12]; [21],20
same,Pigweed plant response rating,pigweed [13]; [18],30
same,"Plant response rating, Pigweed",pigweed [13]; [21],50
same,Velvetleaf plant response rating,velvetleaf [14]; [18],50
same,"Plant response rating, Velvetleaf",velvetleaf [14]; [21],70
same,Wheat plant response rating,wheat [15]; [18],0
same,"Plant response rating, Wheat",wheat [15]; [21],0
same,Corn plant response rating,corn [16]; [18],0
same,"Plant response rating, Corn",corn [16]; [21],0
same,"Plant response rating, Rice",rice,0
same,"Plant response rating, Sedge, Umbrella","sedge, umbrella",10
same,"Plant response rating, Ducksalad",Heteranthera limosa,30
same,"Plant response rating, Barnyardgrass",barnyardgrass [17],0
